According to US20250304620A1, “ANTIMICROBIAL PEPTIDE AND APPLICATION THEREOF” (priority 2023, published 2025):
In brackets after ≈: the same amount, converted by molar mass. Marks after values point to notes of the source that are not given here. Non-standard residues stand in square brackets, D forms with d. Residues, ends and D or L forms follow the SMILES beside them. dPhe(3,4-F2) = N[C@H](Cc1ccc(F)c(F)c1)C(=O)O; dPhe(4-Cl) = N[C@H](Cc1ccc(Cl)cc1)C(=O)O; dPhe(4-F) = N[C@H](Cc1ccc(F)cc1)C(=O)O; d2Nal = N[C@H](Cc1ccc2ccccc2c1)C(=O)O

Assays:
[1] = test system: Staphylococcus aureus (NRS 384); details: NRS 384, 3 h
Experimental: Trypsin (250 U/mg, pH=8.0) and AMPs (LV-1 to LV-30) were mixed in a ratio of 1:10 (w/w) and added to a reaction buffer (0.2 M sodium phosphate, 1 mM CaCl2), pH 7.5), and then incubated at 37° C. for 3 h.

rabbit red blood cells = type: cell-based; details: red cells of rabbit, 1 h
[2] = test system: Shigella flexneri ATCC 12022; assay: MIC against clinically common bacterial strain; type: cell-based
Excerpt: (§1) According to the Standards of Clinical and Laboratory Standards Institute (CLSI) of the USA for antimicrobial drug susceptibility test operation standards, the micronutrient serial twofold dilution method was used further determine MICs of 30 AMPs (S/N: LV-1 to LV-30) 10 clinically common sensitive strains and 6 fungi in clinical practice. The experiment was repeated 5 times in parallel.

[3] = test system: Escherichia coli ATCC 25922; assay: Oral formulations on mice with systemic bacterial infection; type: in vivo, ICR mice; details: three times a day for 7 days; for Number of mice that died on each day after infection: day 4 / Number of mice that died on each day after infection: day 5 / Number of mice that died on each day after infection: day 6 / Number of mice that died on each day after infection: day 7 / Number of mice that died on each day after infection: day 8 / Average survival times (Days): n = 10; for Average survival times (Days): observed for 14 d
Outline: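 ICR mice of both sexes, 10 per group, infected i.p. with 0.2 mL E. coli ATCC 25922 at 1×10^7 CFU/mL. Compounds gavaged by body weight immediately after infection, three times daily for 7 days; deaths and survival time recorded over 14 d observation.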

[4] = test system: Trichophyton ATCC MYA-4438; type: cell-based
Excerpt: as §1

[5] = test system: Klebsiella pneumoniae ATCC 700603; type: cell-based
Excerpt: as §1

[6] = test system: Salmonella typhimurium ATCC 14028; type: cell-based
Excerpt: as §1

Candida krusei ATCC 6258 = type: cell-based
Excerpt: as §1

[7] = test system: Staphylococcus aureus ATCC 25923; type: cell-based
Excerpt: as §1

[8] = test system: Corynebacterium ATCC 7715; type: cell-based
Excerpt: as §1

[9] = test system: Pseudomonas aeruginosa ATCC 27853; type: cell-based
Excerpt: as §1

[10] = test system: Candida albicans ATCC MYA-2876; type: cell-based
Excerpt: as §1

Candida utilis ATCC 9950 = type: cell-based
Excerpt: as §1

[11] = test system: Bacillus subtilis ATCC 6633; type: cell-based
Excerpt: as §1

[12] = test system: Escherichia coli ATCC 25922; type: cell-based
Excerpt: as §1

[13] = test system: Candida glabrata ATCC 15126; type: cell-based
Excerpt: as §1

[14] = test system: Serratia marcescens ATCC 29021; type: cell-based
Excerpt: as §1

Enterococcus ATCC 29212 = type: cell-based
Excerpt: as §1

[15] = test system: Candida tropicalis ATCC 750; type: cell-based
Excerpt: as §1

[16] = Serum stability assay (residual level by RP-HPLC); details: human

Compound	Trypsin MIC [1]	MHC (minimum hemolytic concentration, lowest concentration causing 10% hemolysis) (rabbit red blood cells)	MIC Shigella flexneri ATCC 12022 [2]	Number of mice that died on each day after infection: day 4 ([3]; 1 mg/kg gavage)	Number of mice that died on each day after infection: day 5 ([3]; 1 mg/kg gavage)	Number of mice that died on each day after infection: day 6 ([3]; 1 mg/kg gavage)	Number of mice that died on each day after infection: day 7 ([3]; 1 mg/kg gavage)	Number of mice that died on each day after infection: day 8 ([3]; 1 mg/kg gavage)	Average survival times (Days) ([3]; 1 mg/kg gavage)	MIC Trichophyton ATCC MYA-4438 [4]	MIC Klebsiella pneumoniae ATCC 700603 [5]	MIC Salmonella typhimurium ATCC 14028 [6]	MIC Candida krusei ATCC 6258 (Candida krusei ATCC 6258)	MIC Staphylococcus aureus ATCC 25923 [7]	MIC Corynebacterium ATCC 7715 [8]	MIC Pseudomonas aeruginosa ATCC 27853 [9]	MIC Candida albicans ATCC MYA-2876 [10]	MIC Candida utilis ATCC 9950 (Candida utilis ATCC 9950)	MIC Bacillus subtilis ATCC 6633 [11]	MIC Escherichia coli ATCC 25922 [12]	further results
CC(=O)N[C@H](CCCNC(=N)N)C(=O)N[C@H](CCCCN)C(=O)N[C@H](CC(C)C)C(=O)N[C@H](CC(C)C)C(=O)N[C@H](Cc1ccc2ccccc2c1)C(=O)N[C@H](CCCNC(=N)N)C(=O)N[C@H](CC(C)C)C(=O)N[C@H](CCCCN)C(=O)N[C@H](Cc1ccccc1)C(=O)N[C@H](CCCNC(=N)N)C(=O)N[C@H](CCCCN)C(N)=O [LV-4] (Ac-[dR][dK][dL][dL][d2Nal][dR][dL][dK][dF][dR][dK]-NH2)	1 µg/mL	>1000 µg/mL	4 µg/mL (≈ 2.51 µM)	0 Mouse	1 Mouse	2 Mouse	2 Mouse	1 Mouse	9.5** Days	8 µg/mL (≈ 5.01 µM)	4 µg/mL (≈ 2.51 µM)	2 µg/mL (≈ 1.25 µM)	16 µg/mL (≈ 10 µM)	1 µg/mL (≈ 0.627 µM)	2 µg/mL (≈ 1.25 µM)	2 µg/mL (≈ 1.25 µM)	8 µg/mL (≈ 5.01 µM)	8 µg/mL (≈ 5.01 µM)	4 µg/mL (≈ 2.51 µM)	2 µg/mL (≈ 1.25 µM)	MIC Candida glabrata ATCC 15126 [13]: 8 µg/mL (≈ 5.01 µM); MIC Serratia marcescens ATCC 29021 [14]: 2 µg/mL (≈ 1.25 µM); MIC Enterococcus ATCC 29212 (Enterococcus ATCC 29212): 2 µg/mL (≈ 1.25 µM); MIC Candida tropicalis ATCC 750 [15]: 16 µg/mL (≈ 10 µM); remaining at 12 h, 0.91 mg/mL [16]: 98.7%
CC(=O)N[C@H](CCCNC(=N)N)C(=O)N[C@H](CCCCN)C(=O)N[C@H](CC(C)C)C(=O)N[C@H](CC(C)C)C(=O)N[C@H](Cc1ccc(F)cc1)C(=O)N[C@H](CCCCN)C(=O)N[C@H](CC(C)C)C(=O)N[C@H](CCCCN)C(=O)N[C@H](Cc1ccc(F)cc1)C(=O)N[C@H](CCCCN)C(=O)N[C@H](CCCNC(=N)N)C(N)=O [LV-5] (Ac-[dR][dK][dL][dL][dPhe(4-F)][dK][dL][dK][dPhe(4-F)][dK][dR]-NH2)	1 µg/mL	>1000 µg/mL	2 µg/mL (≈ 1.29 µM)	1 Mouse	2 Mouse	2 Mouse	1 Mouse	0 Mouse	8.9** Days	4 µg/mL (≈ 2.57 µM)	2 µg/mL (≈ 1.29 µM)	4 µg/mL (≈ 2.57 µM)	4 µg/mL (≈ 2.57 µM)	1 µg/mL (≈ 0.644 µM)	4 µg/mL (≈ 2.57 µM)	2 µg/mL (≈ 1.29 µM)	8 µg/mL (≈ 5.15 µM)	16 µg/mL (≈ 10.3 µM)	4 µg/mL (≈ 2.57 µM)	4 µg/mL (≈ 2.57 µM)	MIC Candida glabrata ATCC 15126 [13]: 16 µg/mL (≈ 10.3 µM); MIC Serratia marcescens ATCC 29021 [14]: 2 µg/mL (≈ 1.29 µM); MIC Enterococcus ATCC 29212 (Enterococcus ATCC 29212): 2 µg/mL (≈ 1.29 µM); MIC Candida tropicalis ATCC 750 [15]: 8 µg/mL (≈ 5.15 µM); remaining at 12 h, 0.91 mg/mL [16]: 98.2%
CC(=O)N[C@H](CCCNC(=N)N)C(=O)N[C@H](CCCCN)C(=O)N[C@H](CC(C)C)C(=O)N[C@H](CC(C)C)C(=O)N[C@H](Cc1ccc(F)c(F)c1)C(=O)N[C@H](CCCCN)C(=O)N[C@H](CC(C)C)C(=O)N[C@H](CCCCN)C(=O)N[C@H](Cc1ccc(F)c(F)c1)C(=O)N[C@H](CCCCN)C(=O)N[C@H](CCCNC(=N)N)C(N)=O [LV-6] (Ac-[dR][dK][dL][dL][dPhe(3,4-F2)][dK][dL][dK][dPhe(3,4-F2)][dK][dR]-NH2)	1 µg/mL	>1000 µg/mL	4 µg/mL (≈ 2.52 µM)	1 Mouse	0 Mouse	1 Mouse	1 Mouse	1 Mouse	10.9*** Days	8 µg/mL (≈ 5.03 µM)	4 µg/mL (≈ 2.52 µM)	2 µg/mL (≈ 1.26 µM)	4 µg/mL (≈ 2.52 µM)	1 µg/mL (≈ 0.629 µM)	2 µg/mL (≈ 1.26 µM)	1 µg/mL (≈ 0.629 µM)	16 µg/mL (≈ 10.1 µM)	8 µg/mL (≈ 5.03 µM)	4 µg/mL (≈ 2.52 µM)	1 µg/mL (≈ 0.629 µM)	Number of mice that died on each day after infection: day 4 ([3]; 0.2 mg/kg gavage): 1 Mouse; Number of mice that died on each day after infection: day 5 ([3]; 0.2 mg/kg gavage): 3 Mouse; Number of mice that died on each day after infection: day 6 ([3]; 0.2 mg/kg gavage): 2 Mouse; Number of mice that died on each day after infection: day 7 ([3]; 0.2 mg/kg gavage): 0 Mouse; Number of mice that died on each day after infection: day 8 ([3]; 0.2 mg/kg gavage): 0 Mouse; Average survival times (Days) ([3]; 0.2 mg/kg gavage): 8.7** Days; Number of mice that died on each day after infection: day 4 ([3]; 5 mg/kg gavage): 2 Mouse; Number of mice that died on each day after infection: day 5 ([3]; 5 mg/kg gavage): 1 Mouse; Number of mice that died on each day after infection: day 6 ([3]; 5 mg/kg gavage): 1 Mouse; Number of mice that died on each day after infection: day 7 ([3]; 5 mg/kg gavage): 0 Mouse; Number of mice that died on each day after infection: day 8 ([3]; 5 mg/kg gavage): 0 Mouse; Average survival times (Days) ([3]; 5 mg/kg gavage): 10.3*** Days; survival time of mice infected with Escherichia coli ([3]; gavage, observed 14 d): superior to those of the Levofloxacin group; MIC Candida glabrata ATCC 15126 [13]: 8 µg/mL (≈ 5.03 µM); MIC Serratia marcescens ATCC 29021 [14]: 8 µg/mL (≈ 5.03 µM); MIC Enterococcus ATCC 29212 (Enterococcus ATCC 29212): 2 µg/mL (≈ 1.26 µM); MIC Candida tropicalis ATCC 750 [15]: 4 µg/mL (≈ 2.52 µM); remaining at 12 h, 0.91 mg/mL [16]: 98%
CC(=O)N[C@H](CCCNC(=N)N)C(=O)N[C@H](CCCCN)C(=O)N[C@H](CC(C)C)C(=O)N[C@H](CC(C)C)C(=O)N[C@H](Cc1ccc(Cl)cc1)C(=O)N[C@H](CCCCN)C(=O)N[C@H](CC(C)C)C(=O)N[C@H](CCCCN)C(=O)N[C@H](Cc1ccc(Cl)cc1)C(=O)N[C@H](CCCCN)C(=O)N[C@H](CCCNC(=N)N)C(N)=O [LV-7] (Ac-[dR][dK][dL][dL][dPhe(4-Cl)][dK][dL][dK][dPhe(4-Cl)][dK][dR]-NH2)	1 µg/mL	>1000 µg/mL	4 µg/mL (≈ 2.52 µM)	2 Mouse	2 Mouse	0 Mouse	1 Mouse	1 Mouse	8.9** Days	8 µg/mL (≈ 5.04 µM)	2 µg/mL (≈ 1.26 µM)	4 µg/mL (≈ 2.52 µM)	8 µg/mL (≈ 5.04 µM)	1 µg/mL (≈ 0.63 µM)	4 µg/mL (≈ 2.52 µM)	2 µg/mL (≈ 1.26 µM)	8 µg/mL (≈ 5.04 µM)	8 µg/mL (≈ 5.04 µM)	4 µg/mL (≈ 2.52 µM)	4 µg/mL (≈ 2.52 µM)	MIC Candida glabrata ATCC 15126 [13]: 8 µg/mL (≈ 5.04 µM); MIC Serratia marcescens ATCC 29021 [14]: 8 µg/mL (≈ 5.04 µM); MIC Enterococcus ATCC 29212 (Enterococcus ATCC 29212): 8 µg/mL (≈ 5.04 µM); MIC Candida tropicalis ATCC 750 [15]: 8 µg/mL (≈ 5.04 µM); remaining at 12 h, 0.91 mg/mL [16]: 98.9%
